Test results: ChEMBL document CHEMBL1134141, “Diaminopurine-acridine heterodimers for specific recognition of abasic site containing DNA. Influence on the biological activity of the position of the linker on the purine ring” (Bioorg Med Chem Lett, 2001)

Assays:
[1] = tested on: L1210; test: The compound was evaluated for cytotoxicity against L1210 cell line; assay type: functional, cell-based; conditions: Mus musculus
[2] = tested on: A549; test: The compound was evaluated for cytotoxicity against A549 cell line; assay type: functional, cell-based; conditions: Homo sapiens
[3] = tested on: A549; test: Cytotoxicity of compound in synergy in BCNU (10 uM) against A549 cell line; assay type: functional, Homo sapiens
[4] = tested on: A549; test: Cytotoxicity of compound in synergy in 94% BCNU (10 uM) against A549 cell line; assay type: functional, Homo sapiens

In the case of `COc1ccc2nc3cc(Cl)ccc3c(NCCCC/N=C(\N)NCCCNc3nc(N)c4[nH]cnc4n3)c2c1`, the IC50 [1] is reported as 36 µM and the IC50 [2] is reported as 5 µM.
`COc1ccc2nc3cc(Cl)ccc3c(NCCCC/N=C(\N)NCCCNc3[nH]c(N)nc4ncnc3-4)c2c1` was tested, and the IC50 [1] was over 100 µM and the IC50 [2] was 5 µM.
`COc1ccc2nc3cc(Cl)ccc3c(NCCCC/N=C(\N)NCCCn3cnc4c(N)nc(N)nc43)c2c1` showed an IC50 [1] of 60 µM, a Synergy [3] of 16% and an IC50 [2] of 6.5 µM.
For `COc1ccc2nc3cc(Cl)ccc3c(NCCCN(CCCN(CCn3cnc4c(N)ncnc43)C(=N)N)C(=N)N)c2c1`, the Synergy [4] was 94%, the IC50 [1] was 33 µM and the IC50 [2] was 10 µM.
